Experimental data: patent publication US9049858B2, “Pest controlling composition and method for controlling pest” (SUMITOMO CHEMICAL COMPANY, LIMITED, priority 2010, dated 2015)

Tested on: gray mold fungus (Botrytis cinerea)
Test: Cucumber leaf disk preventive test against gray mold fungus
Format: in vivo
Settings: 15° C., six days
Method: True leaf of cucumber was punched out with cork borer to 13 mm in diameter to prepare a leaf disk. In 24 well microwell plate that was dispensed with 1 ml 0.8% water agar, the leaf disk was placed such that the upper side of the leaf was in an upward direction. […] Control where 20 micro liter ion-exchange water was spread was prepared (for non-treated group). After confirming that the spray solution was dried, conidium of gray mold fungus (Botrytis cinerea) was suspended into potato dextrose broth (DIFCO) in a density, of about 10^5 conidia/mL and was then subjected to a spray inoculation. After leaving to stand the leaf disk in a growth chamber set up at 15° C. for six days, an onset area on each leaf was measured and a preventive value was then calculated by the following equation 1.
The same above operations were carried out using spinetoram or spinosad instead of abamectin, so as to obtain the respective preventive values. Preventive value(%)=100×(A−B)/A (Equation 1)
A: an onset area rate of plant belonging to non-treated group
B: an onset area rate of plant belonging to treated group onset area rate=(onset area of the leaf disk)/(the total area of the leaf disk)
The same above operations as described in Test Examples 1 to 6 were carried out using emamectin-benzoate, lepimectin or milbemectin instead of abamectin, so as to obtain the respective preventive values. […]

With `CNC(=O)C(OC)c1ccccc1COc1cc(C)ccc1C` (centres unmarked) [the present amide compound] the “preventive value (%)” value (the present amide compound alone 1.0 ppm (dimethyl sulfoxide solution)) was 46% and the “preventive value (%)” value (the present amide compound alone 2.5 ppm (dimethyl sulfoxide solution)) was 56%.
